What was measured:
Format in all cases: in vivo
[1] = test system: surinam grass (Brachiaria decumbens); assay: Test E pre-/postemergence plant response; conditions: scale 0 to 100
Summary of the method: (§1)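 Plants scored visually versus controls on a 0–100 scale (100 = complete control) 14 to 21 days after treatment in the greenhouse. Test chemicals in a surfactant-containing non-phytotoxic solvent were applied to soil preemergence or to 1- to 4-leaf plants, 2–18 cm tall.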

[2] = test system: itchgrass (Rottboellia cochinchinensis); assay: Test E pre-/postemergence plant response; conditions: scale 0 to 100
Summary of the method: as §1

[3] = test system: southern (S.) sandbur (Cenchrus echinatus); assay: Test E pre-/postemergence plant response; conditions: scale 0 to 100
Summary of the method: as §1

[4] = test system: naked crabgrass (Digitaria nuda); assay: Test E pre-/postemergence plant response; conditions: scale 0 to 100
Summary of the method: as §1

[5] = test system: purple nutsedge (Cyperus rotundus); assay: Test E pre-/postemergence plant response; conditions: scale 0 to 100
Summary of the method: as §1

[6] = test system: bermudagrass (Cynodon dactylon); assay: Test E pre-/postemergence plant response; conditions: scale 0 to 100
Summary of the method: as §1

[7] = test system: johnsongrass (Sorghum halepense); assay: Test E pre-/postemergence plant response; conditions: scale 0 to 100
Summary of the method: as §1

[8] = test system: broadleaf signalgrass (Brachiaria platyphylla); assay: Test E pre-/postemergence plant response; conditions: scale 0 to 100
Summary of the method: as §1

[9] = test system: large crabgrass (Digitaria sanguinalis); assay: Test E pre-/postemergence plant response; conditions: scale 0 to 100
Summary of the method: as §1

[10] = test system: annual bluegrass (Poa annua); assay: Test C pre-/postemergence plant response
Summary of the method: (§2)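 Ratings ran from 0 (no effect) to 100 (complete control) and were made visually against untreated controls 15–25 days after treatment in a controlled growth environment. Application was preemergence and, for some chemicals, postemergence at the 1- to 4-leaf stage (2–18 cm). Formulation was a non-phytotoxic solvent mixture with surfactant.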

[11] = test system: windgrass (Apera spica-venti); assay: Test C pre-/postemergence plant response
Summary of the method: as §2

wild oat (Avena fatua) = assay: Test C pre-/postemergence plant response
Summary of the method: as §2

canola (Brassica rapa) = assay: Test C pre-/postemergence plant response; conditions: scale 0 to 100, 0 no effect, 100 complete control
Summary of the method: as §2

[12] = test system: canarygrass (Phalaris minor); assay: Test C pre-/postemergence plant response; conditions: Preemergence
Summary of the method: as §2

[13] = Postemergence, 8 g ai/ha, scale 0 to 100, 0 no effect, 100 complete control
[14] = Postemergence, 16 g ai/ha, scale 0 to 100, 0 no effect, 100 complete control
[15] = Postemergence, 31 g ai/ha, scale 0 to 100, 0 no effect, 100 complete control
[16] = Postemergence, 62 g ai/ha, scale 0 to 100, 0 no effect, 100 complete control
[17] = Preemergence, 8 g ai/ha, scale 0 to 100 (0 no effect, 100 complete control)
[18] = Preemergence, 16 g ai/ha, scale 0 to 100 (0 no effect, 100 complete control)
[19] = Preemergence, 31 g ai/ha, scale 0 to 100 (0 no effect, 100 complete control)
[20] = Preemergence, 62 g ai/ha, scale 0 to 100, 0 no effect, 100 complete control

CCOC(=O)Oc1cnn(C)c(=O)c1-n1nc(-c2ccc(Cl)cc2)cc1C [Compound 53]
Plant response rating, Surinam Grass ([1]; 16 g ai/ha, Preemergence): 100 | Plant response rating, Surinam Grass ([1]; 31 g ai/ha, Preemergence): 100 | Plant response rating, Surinam Grass ([1]; 62 g ai/ha, Preemergence): 100 | Plant response rating, Surinam Grass ([1]; Postemergence, 8 g ai/ha): 90 | Plant response rating, Surinam Grass ([1]; Postemergence, 16 g ai/ha): 90 | Plant response rating, Surinam Grass ([1]; Postemergence, 31 g ai/ha): 100 | Plant response rating, Surinam Grass ([1]; Postemergence, 62 g ai/ha): 100 | Plant response rating, Itchgrass ([2]; 16 g ai/ha, Preemergence): 75 | Plant response rating, Itchgrass ([2]; 31 g ai/ha, Preemergence): 85 | Plant response rating, Itchgrass ([2]; 62 g ai/ha, Preemergence): 90 | Plant response rating, Itchgrass ([2]; Postemergence, 8 g ai/ha): 70 | Plant response rating, Itchgrass ([2]; Postemergence, 16 g ai/ha): 90 | Plant response rating, Itchgrass ([2]; Postemergence, 31 g ai/ha): 95 | Plant response rating, Itchgrass ([2]; Postemergence, 62 g ai/ha): 98 | Plant response rating, Sandbur, S. ([3]; 16 g ai/ha, Preemergence): 30 | Plant response rating, Sandbur, S. ([3]; 31 g ai/ha, Preemergence): 100 | Plant response rating, Sandbur, S. ([3]; 62 g ai/ha, Preemergence): 100 | Plant response rating, Sandbur, S. ([3]; Postemergence, 8 g ai/ha): 65 | Plant response rating, Sandbur, S. ([3]; Postemergence, 16 g ai/ha): 80 | Plant response rating, Sandbur, S. ([3]; Postemergence, 31 g ai/ha): 95 | Plant response rating, Sandbur, S. ([3]; Postemergence, 62 g ai/ha): 100 | Plant response rating, Crabgrass, Naked ([4]; 16 g ai/ha, Preemergence): 80 | Plant response rating, Crabgrass, Naked ([4]; 31 g ai/ha, Preemergence): 100 | Plant response rating, Crabgrass, Naked ([4]; 62 g ai/ha, Preemergence): 100 | Plant response rating, Crabgrass, Naked ([4]; Postemergence, 8 g ai/ha): 30 | Plant response rating, Crabgrass, Naked ([4]; Postemergence, 16 g ai/ha): 80 | Plant response rating, Crabgrass, Naked ([4]; Postemergence, 31 g ai/ha): 98 | Plant response rating, Crabgrass, Naked ([4]; Postemergence, 62 g ai/ha): 100 | Plant response rating, Nutsedge, Purple ([5]; 16 g ai/ha, Preemergence): 0 | Plant response rating, Nutsedge, Purple ([5]; 31 g ai/ha, Preemergence): 35 | Plant response rating, Nutsedge, Purple ([5]; 62 g ai/ha, Preemergence): 98 | Plant response rating, Nutsedge, Purple ([5]; Postemergence, 8 g ai/ha): 0 | Plant response rating, Nutsedge, Purple ([5]; Postemergence, 16 g ai/ha): 0 | Plant response rating, Nutsedge, Purple ([5]; Postemergence, 31 g ai/ha): 0 | Plant response rating, Nutsedge, Purple ([5]; Postemergence, 62 g ai/ha): 0 | Plant response rating, Bermudagrass ([6]; 16 g ai/ha, Preemergence): 80 | Plant response rating, Bermudagrass ([6]; 31 g ai/ha, Preemergence): 98 | Plant response rating, Bermudagrass ([6]; 62 g ai/ha, Preemergence): 98 | Plant response rating, Bermudagrass ([6]; Postemergence, 8 g ai/ha): 50 | Plant response rating, Bermudagrass ([6]; Postemergence, 16 g ai/ha): 70 | Plant response rating, Bermudagrass ([6]; Postemergence, 31 g ai/ha): 80 | Plant response rating, Bermudagrass ([6]; Postemergence, 62 g ai/ha): 98 | Plant response rating, Johnsongrass ([7]; 16 g ai/ha, Preemergence): 70 | Plant response rating, Johnsongrass ([7]; 31 g ai/ha, Preemergence): 90 | Plant response rating, Johnsongrass ([7]; 62 g ai/ha, Preemergence): 95 | Plant response rating, Johnsongrass ([7]; Postemergence, 8 g ai/ha): 50 | Plant response rating, Johnsongrass ([7]; Postemergence, 16 g ai/ha): 100 | Plant response rating, Johnsongrass ([7]; Postemergence, 31 g ai/ha): 100 | Plant response rating, Johnsongrass ([7]; Postemergence, 62 g ai/ha): 100 | Plant response rating, Signalgrass ([8]; 16 g ai/ha, Preemergence): 40 | Plant response rating, Signalgrass ([8]; 31 g ai/ha, Preemergence): 98 | Plant response rating, Signalgrass ([8]; 62 g ai/ha, Preemergence): 98 | Plant response rating, Signalgrass ([8]; Postemergence, 8 g ai/ha): 90 | Plant response rating, Signalgrass ([8]; Postemergence, 16 g ai/ha): 95 | Plant response rating, Signalgrass ([8]; Postemergence, 31 g ai/ha): 95 | Plant response rating, Signalgrass ([8]; Postemergence, 62 g ai/ha): 100 | Plant response rating, Crabgrass, Large ([9]; 16 g ai/ha, Preemergence): 40 | Plant response rating, Crabgrass, Large ([9]; 31 g ai/ha, Preemergence): 95 | Plant response rating, Crabgrass, Large ([9]; 62 g ai/ha, Preemergence): 100 | Plant response rating, Crabgrass, Large ([9]; Postemergence, 8 g ai/ha): 35 | Plant response rating, Crabgrass, Large ([9]; Postemergence, 16 g ai/ha): 95 | Plant response rating, Crabgrass, Large ([9]; Postemergence, 31 g ai/ha): 95 | Plant response rating, Crabgrass, Large ([9]; Postemergence, 62 g ai/ha): 100 | Plant response rating, Bluegrass [10, 13]: 0 | Plant response rating, Bluegrass [10, 14]: 0 | Plant response rating, Bluegrass [10, 15]: 0 | Plant response rating, Bluegrass [10, 16]: 35 | Plant response rating, Bluegrass [10, 17]: 0 | Plant response rating, Bluegrass [10, 18]: 20 | Plant response rating, Bluegrass [10, 19]: 40 | Plant response rating, Bluegrass [10, 20]: 65 | Plant response rating, Windgrass [11, 13]: 0 | Plant response rating, Windgrass [11, 14]: 0 | Plant response rating, Windgrass [11, 15]: 50 | Plant response rating, Windgrass [11, 16]: 70 | Plant response rating, Windgrass [11, 17]: 0 | Plant response rating, Windgrass [11, 18]: 30 | Plant response rating, Windgrass [11, 19]: 75 | Plant response rating, Windgrass [11, 20]: 90 | Plant response rating, Oat, Wild (wild oat (Avena fatua); [13]): 25 | Plant response rating, Oat, Wild (wild oat (Avena fatua); [14]): 90 | Plant response rating, Oat, Wild (wild oat (Avena fatua); [15]): 100 | Plant response rating, Oat, Wild (wild oat (Avena fatua); [16]): 100 | Plant response rating, Oat, Wild (wild oat (Avena fatua); [17]): 0 | Plant response rating, Oat, Wild (wild oat (Avena fatua); [18]): 0 | Plant response rating, Oat, Wild (wild oat (Avena fatua); [19]): 75 | Plant response rating, Oat, Wild (wild oat (Avena fatua); [20]): 85 | Plant response rating, Canola (canola (Brassica rapa); Postemergence, 8 g ai/ha): 0 | Plant response rating, Canola (canola (Brassica rapa); Postemergence, 16 g ai/ha): 0 | Plant response rating, Canola (canola (Brassica rapa); Postemergence, 31 g ai/ha): 0 | Plant response rating, Canola (canola (Brassica rapa); Postemergence, 62 g ai/ha): 0 | Plant response rating, Canola (canola (Brassica rapa); Preemergence, 62 g ai/ha): 0 | Plant response rating, Canarygrass ([12]; 8 g ai/ha, scale 0 to 100 (0 no effect, 100 complete control)): 0 | Plant response rating, Canarygrass ([12]; 16 g ai/ha, scale 0 to 100 (0 no effect, 100 complete control)): 0 | Plant response rating, Canarygrass ([12]; 31 g ai/ha, scale 0 to 100 (0 no effect, 100 complete control)): 95 | Plant response rating, Canarygrass ([12]; 62 g ai/ha, scale 0 to 100, 0 no effect, 100 complete control): 95

From US20100267561A1, “HERBICIDAL PYRIDAZINONE DERIVATIVES” (priority 2007, published 2010)
